Test results as given in article PMC4650734, “FV-162 is a novel, orally bioavailable, irreversible proteasome inhibitor with improved pharmacokinetics displaying preclinical efficacy with continuous daily dosing” (Cell Death & Disease, 2015).

How the values were obtained:
[1] = Dose tolerance studies / MTD in mice; conditions: NOD/SCID, mouse, in vivo, po
Experimental: NOD/SCID mice were administered FV-162 (30 mg/kg daily, 7 days/week) in a 5% DMSO, 20% Cremophor vehicle by oral gavage or ONX-0912 (30 mg/kg daily, 7 days/week) in a 5% DMSO, 20% Cremophor vehicle by oral gavage for a week. Mice were monitored for changes in body weight, behavior, and physical appearance.

CT-L proteasome activity = CT-L proteasome activity in RBCs of treated mice; assay type: in vivo, mouse; conditions: for duration of inhibition of proteasome activity in isolated RBCs: after single oral treatment of mice; for inhibition of CT-L activity in RBCs compared with ONX-0912 (30 mg/kg): up to 24 h postdose
Experimental: Cells were harvested by centrifugation at 1200 r.p.m. at room temperature. Cell pellets were washed with PBS and lysed with assay lysis buffer (50 mM HEPES (2-[4-(2-hydroxyethyl) piperazin-1-yl]ethanesulfonic acid)), pH 7.5; 150 mM NaCl; 1% Triton X-100; 2 mM ATP). Cell lysates were incubated on ice for 30 min, mixed by vortex every 5 min, and centrifuged at 12 000 × g for 10 min. Supernatants were transferred to a 96-well plate in triplicate. For each assay, 10 μg of total protein were incubated for 1 h at 37 °C with increasing concentrations (0.001–10 μM) of test compound or vehicle control diluted in assay buffer (50 mM Tris-HCl (tris(hydroxymethyl)aminomethane-HCl), pH 7.5; 150 mM NaCl). After incubation, a specific fluorogenic proteasome substrate was added to each assay reaction (40 μM in a total volume of 100 μl). N-Succinyl-Leu-Leu-Val-Tyr-7-amino-4-methylcoumarin (Suc-Leu-Leu-Val-Tyr-AMC) was used for measuring CT-L activity, t-butoxycarbonyl- Leu-Arg-Arg-7-amino-4-methylcoumarin (Boc-Leu-Arg-Arg-AMC) for T-L activity, and benzyloxycarbonyl-L-leucyl-L-leucyl-L-glutamyl-7-amino-4-methylcoumarin (Z-Leu-Leu-Glu-AMC) for C-L activity. The excitation wavelength was 360 nm and the fluorescence emission of free AMC released during the enzymatic reaction was detected at 460 nm on a SpectraMax M5 fluorescent spectrophotometric plate reader (Molecular Devices, Sunnyvale, CA, USA). AMC release rate was measured at 37 °C in a kinetic mode, recording every 5 min for 30 min.
Five-to-six-week-old male NOD/SCID mice were administered vehicle (5% DMSO, 20% Cremophor) or proteasome inhibitors either intravenously or by oral gavage (3 mice per group), and 20–50 μl of venous blood were collected from each mouse over 24 h. Blood samples were mixed with heparin (APP Pharmaceuticals; Schaumburg, IL, USA) in 0.5-ml tubes in accordance with the manufacturer's instructions. After centrifugal separation at 3000 × g for 10 min, RBCs in the bottom layer were transferred into a new tube and stored at −70 °C until use. RBCs were lysed with assay lysis buffer and incubated on ice for 30 min, mixing by vortex every 5 min, and centrifuged at 12 000 × g for 10 min. Supernatants were transferred to a 96-well plate and proteasome activity was measured as described in 'Cell lysates' section.

[2] = system: CD138- normal hematopoietic cells; assay: Annexin V flow cytometry viability of primary bone marrow mononuclear cells, normal fraction; assay type: cell-based, human; conditions: 48 h; for sensitivity of CD138- normal hematopoietic cells: concentrations ⩽0.1 μM for FV-162, similar concentrations for ONX-0912
Experimental: Human multiple myeloma cell lines 8226, H929, JJN3, KMH11, KMS11, KMS18, LP1, MM.1 S, OPM2, and U266 were grown in Iscove's modified Dulbecco's medium (IMDM). Cell lines were authenticated with short tandem repeat method in September 2011. In addition, cell lines were continually monitored by morphological inspection. Primary mononuclear cells were isolated from peripheral blood or bone marrow samples from multiple myeloma patients at the Princess Margaret Cancer Centre (Toronto, ON, Canada) by Ficoll density gradient centrifugation and cultured in IMDM. All cell culture media were obtained from the Ontario Cancer Institute Tissue Culture Media Facility (Toronto, ON, Canada) and were supplemented with 10% fetal calf serum, 100 μg/ml penicillin, and 100 μg/ml streptomycin (Hyclone, Logan, UT, USA). […] Cellular viability was primarily assessed by MTS assay according to the manufacturer's instructions (Promega, Madison, WI, USA). Ten thousand cells per well were seeded in triplicate in tissue culture-treated 96-well plates. Two hours after seeding, cells were treated with proteasome inhibitors for 72 h (0.01–10 μM) or DMSO vehicle control. Cell viability was independently confirmed by reading the optical density at 490 nm and by exclusion of trypan blue stain (Invitrogen, Burlington, ON, Canada). Viability of primary mononuclear cells was determined by Annexin V–fluorescein isothiocyanate and propidium iodide co-staining (Biovision Research Products, Mountain View, CA, USA) using flow cytometry according to the manufacturer's instructions after 48 h of treatment with inhibitors or vehicle control.

[3] = Pharmacokinetic study in NOD/SCID mice; assay type: in vivo; conditions: plasma, mouse; for bioavailability: 25 mg/kg p.o. vs 5 mg/kg i.v.
Experimental: NOD/SCID mice were administered FV-162 or ONX-0912 at doses of 5 mg/kg intravenously or 25 mg/kg by oral gavage in a 12.5% ethanol, 12.5% Tween-80 vehicle (3 mice per group). Venous blood samples (20–50 μl) were collected at 5, 15, 30 min, and 1, 2, and 4 h postdose. Plasma was separated from whole blood by centrifugation and stored at −20 °C until analysis. […] Venous blood samples (20–50 μl) were collected at 5, 10, 30, and 60 min postdose. Plasma was separated from whole blood by centrifugation and stored at −20 °C until analysis. The Cmax, its associated time (Tmax), the terminal half-life (t1/2), area under the plasma concentration–time curve (AUC), clearance (CL), and volume of distribution (Vd) were evaluated using Pheonix WinNonlin 6.2.1 (Princeton, NJ, USA), and relative oral bioavailability (F%) values were calculated as follows: F%=AUCoral gavage/AUCintravenous × 100.

[4] = Pharmacokinetic study in Sprague-Dawley rats; assay type: in vivo; conditions: rat; for bioavailability: 40 mg/kg p.o. vs 5 mg/kg i.v.
[5] = male, Sprague-Dawley, plasma, iv, 5 mg/kg i.v.
[6] = male, Sprague-Dawley, plasma, iv, 5 mg/kg i.v., read-out: AUC (converted)
[7] = male, Sprague-Dawley, plasma, iv, 5 mg/kg i.v., read-out: Cmax
[8] = male, Sprague-Dawley, plasma, po, 40 mg/kg p.o.
[9] = male, Sprague-Dawley, plasma, po
[10] = male, Sprague-Dawley, plasma, 40 mg/kg oral, read-out: AUC (as printed in text) (converted)
[11] = male, Sprague-Dawley, plasma, 40 mg/kg oral, read-out: Cmax (as printed in text)

Cc1ncc(C(=O)N[C@@H](COC(F)F)C(=O)N[C@@H](COC(F)F)C(=O)N[C@@H](Cc2ccccc2)C(=O)[C@@]2(C)CO2)s1 [FV-162]
MTD [1]: 200 mg/kg | duration of inhibition of proteasome activity in isolated RBCs (CT-L proteasome activity): sustained for up to 24 h | inhibition of CT-L activity in RBCs compared with ONX-0912 (30 mg/kg) (CT-L proteasome activity; single oral dose 30 mg/kg): less inhibition of the CT-L activity than ONX-0912 | inhibition of CT-L activity in RBCs compared with ONX-0912 (30 mg/kg) (CT-L proteasome activity; single oral dose 100 mg/kg (half the MTD)): performed similarly to almost the MTD of ONX-0912 | CD138- cells to which compound was toxic ([2]; 0.5 μM): 50% | sensitivity of CD138- normal hematopoietic cells [2]: largely insensitive | AUC ([3]; iv, 5 mg/kg i.v.): 111 ng·h/mL | Cmax ([3]; iv, 5 mg/kg i.v.): 268 ng/mL | Tmax ([3]; iv, 5 mg/kg i.v.): 5 min | Vd ([3]; iv, 5 mg/kg i.v.): 96 L/kg | clearance ([3]; iv, 5 mg/kg i.v.): 702 mL/min/kg | half-life ([3]; iv, 5 mg/kg i.v.): 95 min | AUC ([3]; po, 25 mg/kg p.o.): 51.9 ng·h/mL | Cmax ([3]; po, 25 mg/kg p.o.): 21 ng/mL | Tmax ([3]; po, 25 mg/kg p.o.): 60 min | bioavailability ([3]; po): 10% | Tmax [4, 5]: 5 min | Vd [4, 5]: 20 L/kg | half-life [4, 5]: 68 min | AUC [4, 6]: 403 ng·h/mL | Cmax [4, 7]: 392 ng/mL | Tmax [4, 8]: 15 min | bioavailability [4, 9]: 14% | AUC [4, 10]: 451 ng·h/mL | Cmax [4, 11]: 615 ng/mL | AUC ([4]; 40 mg/kg p.o.): 27 073 min × ng/ml

COC[C@H](NC(=O)c1cnc(C)s1)C(=O)N[C@@H](COC)C(=O)N[C@@H](Cc1ccccc1)C(=O)[C@@]1(C)CO1 [ONX-0912, reference compound]
MTD [1]: 40 mg/kg | duration of inhibition of proteasome activity in isolated RBCs (CT-L proteasome activity): sustained for up to 24 h | sensitivity of CD138- normal hematopoietic cells [2]: no adverse effects | AUC ([3]; iv, 5 mg/kg i.v.): 54.1 ng·h/mL | Cmax ([3]; iv, 5 mg/kg i.v.): 187 ng/mL | Tmax ([3]; iv, 5 mg/kg i.v.): 5 min | Vd ([3]; iv, 5 mg/kg i.v.): 48 L/kg | clearance ([3]; iv, 5 mg/kg i.v.): 1490 mL/min/kg | half-life ([3]; iv, 5 mg/kg i.v.): 22 min | AUC ([3]; po, 25 mg/kg p.o.): 8.55 ng·h/mL | Cmax ([3]; po, 25 mg/kg p.o.): 38 ng/mL | Tmax ([3]; po, 25 mg/kg p.o.): 5 min | bioavailability ([3]; po): 3% | Tmax [4, 5]: 5 min | Vd [4, 5]: 4 L/kg | clearance [4, 5]: 273 mL/min/kg | half-life [4, 5]: 10 min | AUC [4, 6]: 301 ng·h/mL | Cmax [4, 7]: 1090 ng/mL | Tmax [4, 8]: 5 min | bioavailability [4, 9]: 16% | AUC [4, 10]: 377 ng·h/mL | Cmax [4, 11]: 1270 ng/mL | AUC ([4]; 40 mg/kg p.o.): 22 627 min × ng/ml
